Results reported in PubChem BioAssay (NCI).
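Five concentrations, 48 hours, 96-well plates. TGI denotes the concentration required for complete inhibition of growth.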

Tests used:
Assay in all cases: inhibition of tumour cell growth, NCI panel, 48 h
HOP-62 NSCLC = test system: HOP-62 NSCLC
MCF7 breast = test system: MCF7 breast
K-562 leukemia = test system: K-562 leukemia
LOX IMVI melanoma = test system: LOX IMVI melanoma
ACHN renal = test system: ACHN renal
SF-268 CNS = test system: SF-268 CNS
SK-MEL-28 melanoma = test system: SK-MEL-28 melanoma
COLO 205 colon = test system: COLO 205 colon
HCT-116 colon = test system: HCT-116 colon
KM12 colon = test system: KM12 colon

Row | Compound | TGI (HOP-62 NSCLC) | TGI (MCF7 breast) | TGI (K-562 leukemia) | TGI (LOX IMVI melanoma) | TGI (ACHN renal) | TGI (SF-268 CNS) | TGI (SK-MEL-28 melanoma) | TGI (COLO 205 colon) | TGI (HCT-116 colon) | TGI (KM12 colon)
1 | CC(C)(C)NC1C2CCC(C)(C1O)C2(C)C (centres undefined) | > 100 µM | 14.7 µM | > 100 µM | > 100 µM | 21.6 µM | > 100 µM | > 100 µM | > 100 µM | > 100 µM | > 100 µM
2 | N/N=C(\C(=O)Nc1ccc([N+](=O)[O-])cc1)C(C1=Nc2cc([N+](=O)[O-])ccc2NC1)[N+](=O)[O-] (centres undefined) | > 100 µM | > 100 µM | > 100 µM | > 100 µM | > 100 µM | > 100 µM | > 100 µM | – | > 100 µM | > 100 µM
3 | CC1(C)C2CCC1(CC(=O)O)C(Cl)C2 (centres undefined) | > 100 µM | > 100 µM | > 100 µM | > 100 µM | > 100 µM | > 100 µM | > 100 µM | > 100 µM | > 100 µM | > 100 µM
4 | Cc1cccc(NC(=S)N/N=C(/c2ccccc2)c2ccccn2)c1 | 17.5 µM | 0.663 µM | 2.84 µM | 11.5 µM | 11.8 µM | 12.6 µM | 40.5 µM | 12.8 µM | 13 µM | 13.8 µM
5 | COC(Cc1ccccc1)NC(C)=O (centres undefined) | > 100 µM | > 100 µM | > 100 µM | > 100 µM | > 100 µM | > 100 µM | > 100 µM | > 100 µM | > 100 µM | > 100 µM
6 | CC(=O)O[C@H]1[C@@H](N2CCN(C)CC2)C[C@H]2[C@@H]3CC=C4C[C@@H](N5CCCC5)CC[C@]4(C)[C@H]3CC[C@@]21C | > 100 µM | > 100 µM | 33 µM | 39.4 µM | > 100 µM | > 100 µM | 96.9 µM | > 100 µM | > 100 µM | > 100 µM
7 | CCOP(=O)(OCC)/C(C#N)=C/c1c(C)[nH]c2ccccc12 | > 100 µM | > 100 µM | > 100 µM | > 100 µM | > 100 µM | > 100 µM | > 100 µM | > 100 µM | > 100 µM | > 100 µM
8 | Cc1cc2[nH]c3c(C#N)c(-c4ccccc4)c(CN4CCOCC4)c(=O)n3c2cc1C | > 100 µM | > 100 µM | – | > 100 µM | > 100 µM | > 100 µM | > 100 µM | > 100 µM | > 100 µM | > 100 µM
9 | S=C1SC(c2ccc(Cl)cc2)(c2ccc(Cl)cc2)c2ccccc21 | > 100 µM | > 100 µM | > 100 µM | > 100 µM | > 100 µM | > 100 µM | > 100 µM | > 100 µM | > 100 µM | > 100 µM
10 | COC(=O)[C@@H]1C[C@]2(CC=C(C)C)c3ccccc3N(S(=O)(=O)c3ccccc3)[C@@H]2N1C(=O)OC | > 100 µM | 48.5 µM | > 100 µM | > 100 µM | > 100 µM | 99.3 µM | > 100 µM | > 100 µM | > 100 µM | > 100 µM
11 | CCn1cnc2c(NC(C)=O)ncnc21 | > 100 µM | > 100 µM | > 100 µM | > 100 µM | > 100 µM | – | > 100 µM | > 100 µM | > 100 µM | > 100 µM
12 | CCCCCC(/C=N/N)C(O)(C(F)(F)F)C(F)(F)F (centres undefined) | > 10 µM | > 10 µM | – | 9.49 µM | > 10 µM | 5.92 µM | 7.43 µM | 3.4 µM | 9.02 µM | > 10 µM
13 | CC1(C)O[C@@H]2[C@@H]3OC(=O)C[C@@H]3[C@@H](COCc3ccccc3)[C@@H]2O1 | > 100 µM | > 100 µM | > 100 µM | > 100 µM | > 100 µM | > 100 µM | > 100 µM | > 100 µM | > 100 µM | > 100 µM
14 | CC(=O)OC1COC(Nn2c(=O)[nH]c3ccccc3c2=O)C(OC(C)=O)C1OC(C)=O (centres undefined) | > 100 µM | > 100 µM | > 100 µM | > 100 µM | > 100 µM | > 100 µM | > 100 µM | > 100 µM | > 100 µM | > 100 µM
15 | CCOC1SC(SC)=NN1C(=O)C(OC(C)=O)C(OC(C)=O)C(OC(C)=O)C(OC(C)=O)C(=O)N1N=C(SC)SC1OCC (centres undefined) | > 100 µM | > 100 µM | > 100 µM | > 100 µM | > 100 µM | > 100 µM | > 100 µM | > 100 µM | > 100 µM | > 100 µM
16 | O=C1C[C@H]2[C@H](c3ccc(Br)cc3)[C@H]3C(=O)c4ccccc4NC(=O)[C@@H]3[C@@]2(O)c2ccccc2N1 | 49.7 µM | 77.2 µM | 48.9 µM | 37.1 µM | 97.7 µM | > 100 µM | > 100 µM | 40.2 µM | 33.1 µM | 43.8 µM
17 | O=C(O)c1cc(Sc2ccc([N+](=O)[O-])c(C(=O)O)c2)ccc1[N+](=O)[O-] | > 100 µM | > 100 µM | > 100 µM | > 100 µM | > 100 µM | > 100 µM | > 100 µM | > 100 µM | > 100 µM | > 100 µM
18 | CC(NC(=O)C(N)CC(=O)O)NC(=O)N1CCCC1 (centres undefined) | > 100 µM | > 100 µM | > 100 µM | > 100 µM | > 100 µM | > 100 µM | > 100 µM | > 100 µM | > 100 µM | > 100 µM

Row | Compound | TGI (HOP-62 NSCLC) | TGI (MCF7 breast) | TGI (K-562 leukemia) | TGI (LOX IMVI melanoma) | TGI (ACHN renal) | TGI (SF-268 CNS) | TGI (SK-MEL-28 melanoma) | TGI (COLO 205 colon) | TGI (HCT-116 colon) | TGI (KM12 colon)
19 | Cn1cnc([N+](=O)[O-])c1Sc1nc(N)nc2c1ncn2Cc1ccccc1 | 55.4 µM | > 100 µM | > 100 µM | 65.4 µM | 31.3 µM | 44.6 µM | 42.5 µM | 32.1 µM | 42.1 µM | > 100 µM
20 | COc1c(O)cc(C(=O)O[C@@H]2Cc3c(O)cc(O)cc3O[C@@H]2c2cc(O)c(O)c(O)c2)cc1O | 92.3 µM | 42 µM | 46.8 µM | 40.2 µM | > 100 µM | 46.7 µM | > 100 µM | – | 35.4 µM | 39 µM
21 | COc1cc(OC)nc(Nc2c(C#N)c3nc4ccccc4n3c3ccccc23)n1 | 35 µM | > 100 µM | > 100 µM | > 100 µM | 50.1 µM | > 100 µM | > 100 µM | > 100 µM | > 100 µM | > 100 µM
22 | CC1(C)OC(=S)N(c2ccccc2)C12C=Cc1cc3ccccc3cc1O2 (centres undefined) | > 100 µM | > 100 µM | > 100 µM | > 100 µM | > 100 µM | > 100 µM | > 100 µM | > 100 µM | > 100 µM | > 100 µM
23 | CCNc1ncnc2n[nH]nc12 | > 100 µM | > 100 µM | > 100 µM | > 100 µM | > 100 µM | – | > 100 µM | > 100 µM | > 100 µM | > 100 µM
24 | O=C1O[C@H]2[C@@H]3OC(=O)c4cc(O)c(O)c(O)c4-c4c(cc(O)c(O)c4O)C(=O)OC[C@H]2O[C@@H](OC(=O)c2cc(O)c(O)c(O)c2)[C@@H]3OC(=O)c2cc(O)c(O)c3c2[C@@H]2C1=CC(=O)C(O)(O)C2(O)O3 (some centres undefined) | > 100 µM | 50.6 µM | 94.5 µM | 26.1 µM | > 100 µM | > 100 µM | > 100 µM | > 100 µM | 32 µM | 80.1 µM
25 | C/C(=N\Nc1nc2ccccc2o1)c1ccncn1 | > 68.7 µM | > 43.8 µM | > 100 µM | > 37.1 µM | > 100 µM | > 53.8 µM | > 100 µM | > 51.3 µM | > 33.6 µM | 11.6 µM
26 | CC(C)=CCC[C@H](C)[C@H]1CC[C@@H](C)c2cc(O)c(C)cc21 | 35.6 µM | 32.5 µM | 46.8 µM | 32 µM | 30.6 µM | 31.2 µM | 36.8 µM | 34.3 µM | 32.9 µM | 37.5 µM
27 | CCN(CC)c1nc(N(C)C)c2cc(OC)ccc2n1 | > 100 µM | > 100 µM | > 100 µM | > 100 µM | > 100 µM | 91.8 µM | > 100 µM | 28.2 µM | > 100 µM | > 100 µM
28 | Cc1cc(-c2nc3cc(F)c(F)cc3s2)ccc1N | > 71.3 µM | > 100 µM | > 100 µM | > 100 µM | > 100 µM | > 100 µM | > 100 µM | > 100 µM | > 100 µM | > 100 µM
29 | O=C1NN(c2ccccc2)C(=O)C2C3c4ccccc4C(c4ccccc43)C12 (centres undefined) | > 100 µM | > 100 µM | > 100 µM | > 100 µM | > 100 µM | > 100 µM | > 100 µM | > 100 µM | > 100 µM | > 100 µM
30 | CC1(C)CC[C@]2(C(=O)O)CC[C@]3(C)C(=CC[C@@H]4[C@@]5(C)CC[C@H](OC6OC(CO)C(O)C(O)C6OC6OC(CO)C(O)C(O)C6O)C(C)(C)[C@@H]5CC[C@]43C)[C@@H]2C1 (some centres undefined) | 32.7 µM | 36.7 µM | 44.6 µM | 82.4 µM | 32.7 µM | 32 µM | 28.9 µM | 28.7 µM | 31.9 µM | 29.4 µM
31 | O=C1OC(c2ccccc2)N/C1=C\c1ccc2c(c1)OCO2 (centres undefined) | > 100 µM | > 100 µM | > 100 µM | > 100 µM | > 100 µM | > 100 µM | > 100 µM | > 100 µM | > 100 µM | > 95.5 µM
32 | C[C@@H]1OC(=O)/C(=C\N(C)C)[C@H]2CC(=O)N(CCc3cn(S(=O)(=O)C(F)(F)F)c4ccccc34)C[C@H]12 | > 100 µM | > 100 µM | > 100 µM | > 100 µM | > 100 µM | > 100 µM | > 100 µM | > 100 µM | > 100 µM | > 100 µM
33 | CCCCOC(=O)C1CN2C(=NC1(C(F)(F)F)C(F)(F)F)Sc1ccccc12 (centres undefined) | > 100 µM | > 100 µM | > 100 µM | > 100 µM | > 100 µM | > 100 µM | > 100 µM | > 100 µM | > 100 µM | > 100 µM
34 | COc1ccc(-c2nnc(CCCCCCCCc3nnc(-c4ccc(OC)cc4)o3)o2)cc1 | 74.2 µM | > 100 µM | > 100 µM | > 100 µM | > 100 µM | > 100 µM | > 100 µM | > 100 µM | > 100 µM | > 100 µM
35 | Cc1nc2c(ncn2CCO)c(=O)[nH]1 | > 100 µM | > 100 µM | > 100 µM | > 100 µM | > 100 µM | > 100 µM | > 100 µM | > 100 µM | > 100 µM | > 100 µM
